{
  "source": "patent US9408891B2",
  "about": "“Methods of using gelsolin to treat or prevent bacterial sepsis” (priority 2003, dated 2016)",
  "key": {"rat primary astrocytes": {"tested_on": "rat primary astrocytes", "assay": "LPS-induced actin cytoskeleton disassembly, phalloidin staining, astrocytes", "format": "cell-based", "conditions": "LPS 10 μg/ml, 10 min", "source_text": "(§1) In light of the findings in the previous Examples, and using the materials prepared in above, the effect of the gelsolin binding by LPS was studied to determine the effect on cellular responses in vitro. Cell cultures of human aortic endothelial cells (HAEC) and rat primary astrocytes were used to evaluate the effect of LPS on actin. Both of these cell types have mCD14 (membrane bound C14) and TLR LPS receptors (Faure, et al., J. Biol. Chem. 275:11058-11063 (2000); Bsibsi, et al., J. Neuropathol. Exp. Neurol. 61:1013-1021 (2002); Bowman, et al., Glia 43:281-291 (2003)).\nRat primary astrocytes were obtained from prenatal rats and maintained for 14 days in culture before use. Embryos (E17-E19) were removed by caesarian section from a Sprague-Dawley rat and the hippocampi were surgically removed. The tissue was digested in trypsin/DNAse at 37° C., centrifuged (1000×5 min) and filtered to derive suspensions from each pup. […]\n(§2) HAECs and astrocytes cultures were incubated for 10 minutes in medium containing 10 μg/ml LPS alone, or LPS that had been pre-incubated with 0.16 mg/ml of human gelsolin. […] Location of transcription factor nuclear factor-kappaB (NF-κB) was observed using a monoclonal antibody to NF-κB (Molecular Probes), and cell nuclei were detected by counter-staining with 4′, 6-diamidino-2-phenylindole dihydrochloride (DAPI) (Sigma)."}, "human platelets": {"tested_on": "human platelets", "assay": "Collagen-induced aggregation of gel-filtered platelets", "format": "cell-based", "conditions": "collagen 10 μg/ml", "protocol": "To isolate human platelets, blood from healthy volunteers was collected in acid-citrate dextrose. Platelet-rich plasma obtained after centrifugation (15 minutes, 110×g) at room temperature, was supplemented with apyrase (0.5 U/ml) (Sigma-Aldrich) to degrade excess nucleotides. Platelets were sedimented by centrifugation (10 minutes, 1000×g), suspended in buffer A (139 mM NaCl, 2.8 mM KCl, 0.8 mM MgCl2, 0.8 mM KH2PO4, 8.9 mM NaHCO3, 10 mM HEPES, 5.6 mM glucose, 0.3% albumin, pH 7.35) and filtered on a 50 ml column of Sepharose 2B to obtain gel-filtered platelets (GFP).\nPlatelet aggregation was initiated by adding collagen (10 μg/ml) (Chrono-Log Corp., Havertown, Pa.). Platelet aggregation was monitored using a Chronolog Lumi-Aggregometer (Chrono-Log Corp.). Changes in light transmission were recorded for 10 minutes, using a PowerLab/200 instrument and MacLab Chart program Version 3.2. When required before activation, the platelet suspension was reacted with LPS, or LPS-preincubated with the SEQ ID No:1 peptide (QRLFQVKGRR)."}, "[1]": {"tested_on": "human aortic endothelial cells (HAEC)", "assay": "LPS-induced actin cytoskeleton disassembly, phalloidin staining, endothelial cells", "format": "cell-based", "conditions": "LPS 10 μg/ml, 10 min", "source_text": "as §1\nHAECs (primary human aortic endothelial cells) (ATCC, Rockville, Md. or Clonetics, San Diego, Calif.), will grow to confluence through passages 5-9 in endothelial cell growth medium supplemented with 2% fetal bovine serum, 10 μg/liter human recombinant epidermal growth factor, 1 mg/liter hydrocortisone, 50 μg/ml gentamicin, 50 ng/ml amphotericin-B, in a 37° C. humidified atmosphere of 95% air:5% C02.\nas §2"}, "[2]": {"target": "T1, recombinant human gelsolin (rhGLS) (Homo sapiens, UniProt P06396)", "T1 construct": "purchased Biogen IDEC, Inc., Cambridge, Mass; host or cells: E. coli", "T1 sequence (P06396 28-782)": "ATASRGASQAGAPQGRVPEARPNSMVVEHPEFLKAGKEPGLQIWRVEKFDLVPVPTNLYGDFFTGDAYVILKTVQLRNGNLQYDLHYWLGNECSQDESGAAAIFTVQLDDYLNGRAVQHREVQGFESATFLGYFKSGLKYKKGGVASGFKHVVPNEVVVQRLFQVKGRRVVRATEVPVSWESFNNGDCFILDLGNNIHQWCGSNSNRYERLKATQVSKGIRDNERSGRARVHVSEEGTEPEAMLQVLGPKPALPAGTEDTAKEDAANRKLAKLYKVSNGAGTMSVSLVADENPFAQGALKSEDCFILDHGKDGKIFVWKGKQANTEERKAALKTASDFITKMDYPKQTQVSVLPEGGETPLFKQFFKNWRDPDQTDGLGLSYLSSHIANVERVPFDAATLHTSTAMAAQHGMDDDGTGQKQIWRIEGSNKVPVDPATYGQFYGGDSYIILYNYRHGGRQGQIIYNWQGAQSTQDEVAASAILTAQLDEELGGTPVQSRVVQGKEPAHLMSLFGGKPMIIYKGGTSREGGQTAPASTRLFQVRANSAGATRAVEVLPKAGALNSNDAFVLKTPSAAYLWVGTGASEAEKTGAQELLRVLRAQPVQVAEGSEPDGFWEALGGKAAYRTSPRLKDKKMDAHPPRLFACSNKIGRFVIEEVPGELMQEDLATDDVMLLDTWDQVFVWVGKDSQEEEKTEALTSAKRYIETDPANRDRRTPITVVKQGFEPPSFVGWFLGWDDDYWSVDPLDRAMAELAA", "assay": "Change of gelsolin OD at 280 nm after adding lipids", "format": "binding", "conditions": "OD 280 nm", "protocol": "Therefore, to determine changes of gelsolin OD at 280 nm, different amounts of LPS, LPA and PS were added to recombinant human gelsolin (rhGLS) solutions and OD emission spectra were recorded using spectrophotometer Genesys 6 (Thermo-Spectronic, USA)."}, "[3]": {"tested_on": "NF-κB translocation in rat primary astrocytes", "assay": "NF-κB translocation to the nucleus in astrocytes", "format": "cell-based", "conditions": "astrocytes, 2 hour; LPS 2 μM or TNF-α 10 ng/ml", "protocol": "Rat primary astrocytes were obtained from prenatal rats and maintained for 14 days in culture before use. Embryos (E17-E19) were removed by caesarian section from a Sprague-Dawley rat and the hippocampi were surgically removed. The tissue was digested in trypsin/DNAse at 37° C., centrifuged (1000×5 min) and filtered to derive suspensions from each pup. Cells were grown in an incubator at 37° C. and 5% CO2 in DMEM (Dulbecco's Modified Eagle's Medium; BioWhittaker/Cambrex BioScience, East Rutherford, N.J.), supplemented with Ham's F12 (Sigma-Aldrich, St. Louis, Mo.) and 5% fetal bovine serum (FBS) (Hyclone, Logan, Utah) for 7 days, followed by an additional 7 days in Neurobasal medium (Gibco, Grand Island, N.Y.) also supplemented with 5% FBS, 2 mM l-glutamine, 50 μg/ml streptomycin and 50 U/ml penicillin. In each experiment, the medium was changed to serum-free at 6-12 hours prior to addition of LPS, TNF-α, or gelsolin.\nHAECs and astrocytes cultures were incubated for 10 minutes in medium containing 10 μg/ml LPS alone, or LPS that had been pre-incubated with 0.16 mg/ml of human gelsolin. Cultures were fixed with ice-cold methanol and immunostained for F-actin with fluorescein isothiocyanate (FITC)-labeled phalloidin (Molecular Probes, Eugene, Oreg.). In astrocyte cultures, NF-κB translocation was manipulated by a 2 hour incubation in serum-free medium containing one of the following: 10 ng/ml TNF-α, 10 μg/ml LPS alone, or LPS that had been preincubated with 0.16 mg/ml human gelsolin. Location of transcription factor nuclear factor-kappaB (NF-κB) was observed using a monoclonal antibody to NF-κB (Molecular Probes), and cell nuclei were detected by counter-staining with 4′, 6-diamidino-2-phenylindole dihydrochloride (DAPI) (Sigma)."}},
  "note": "“Also recorded” adds a separate entry of the source.",
  "data": [
    {"substance": "lipopolysaccharide [LPS]", "values": [
      {"measurement": "effect of LPS alone on actin cytoskeleton", "setting": "rat primary astrocytes", "value": "rapidly induced the disassembly of the actin cytoskeleton; also recorded: disassembly of the actin cytoskeleton was readily induced; also recorded: rapidly induced disassembly of the actin cytoskeleton"},
      {"measurement": "effect of LPS alone on collagen-induced platelet aggregation and secretion", "setting": "human platelets", "value": "strongly inhibited"},
      {"measurement": "effect of LPS alone on actin cytoskeleton", "setting": "[1]", "value": "rapidly induced the disassembly of the actin cytoskeleton; also recorded: disassembly of the actin cytoskeleton was readily induced; also recorded: rapidly induced disassembly of the actin cytoskeleton"},
      {"measurement": "maximal decrease in UV absorbance of intact gelsolin", "setting": "[2]", "value": "~35", "unit": "%"},
      {"measurement": "induction of NF-κB translocation to the nucleus", "setting": "[3]", "value": "caused NF-κB translocation to the nucleoplasm; also recorded: resulted in its translocation to the nucleoplasm"}
    ]}
  ]
}
